# Entries after “also recorded” stand apart in the source; their conditions may differ.
# What was measured:
# [1] = tested on: L-NAME-treated moderately hypertensive mice; experiment: Telemetry in L-NAME-treated hypertensive mice; type: in vivo, mouse
# Method: Telemetry. […] Maximal injection volume was ≤600 μl. […] Data were analyzed using the DSI software.
# In contrast, SKA-121 at 100 mg/kg produced a significant drop in MAP by ˜25 mm Hg over 6 h.
# mKV1.3 = molecular target: T1, mKV1.3 (Mus musculus, UniProt P16390); experiment: KV1.3 current inhibition (L929 cells); type: cell-based
# T1 construct: expressed in transfected cells; host or cells: L929
# T1 sequence (P16390 whole entry): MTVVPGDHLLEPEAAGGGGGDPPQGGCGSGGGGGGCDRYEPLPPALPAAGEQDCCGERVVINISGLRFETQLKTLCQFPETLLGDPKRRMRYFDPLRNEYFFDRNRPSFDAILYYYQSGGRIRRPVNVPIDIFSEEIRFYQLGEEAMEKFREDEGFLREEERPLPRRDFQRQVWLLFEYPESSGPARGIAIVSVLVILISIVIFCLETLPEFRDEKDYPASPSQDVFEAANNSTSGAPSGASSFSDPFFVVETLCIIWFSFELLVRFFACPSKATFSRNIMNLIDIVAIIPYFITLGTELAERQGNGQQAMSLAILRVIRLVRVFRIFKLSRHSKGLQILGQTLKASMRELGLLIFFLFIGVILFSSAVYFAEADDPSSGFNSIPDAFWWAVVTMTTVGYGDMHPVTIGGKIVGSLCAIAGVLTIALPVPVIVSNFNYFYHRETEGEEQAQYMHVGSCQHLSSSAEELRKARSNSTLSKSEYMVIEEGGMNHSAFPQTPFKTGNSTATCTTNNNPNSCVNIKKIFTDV
# Text: Cells, Cell lines and Clones. HEK-293 cells stably expressing hKCa2.1, rKCa2.2 and hKCa3.1 were obtained from Khaled Houamed (University of Chicago, Ill.) in 2002 and have been maintained in the Wulff laboratory at the University of California since then. The cloning of hKCa2.3 (19 CAG repeats) and hKCa3.1 has been previously described (Wulff et al., 2000). The hKCa2.3 clone was later stably expressed in COS-7 cells at Aurora Biosciences Corp., San Diego, Calif. […]
# Electrophysiology. […] For manual experiments COS-7, HEK-293 or L929 cells were trypsinized, plated onto poly-L-lysine coated coverslips and typically recorded from between 20 min and 4 h after plating. […] Free Ca^2+ concentrations were calculated with MaxChelator assuming a temperature of 25° C., a pH of 7.2 and an ionic strength of 160 mM. To reduce contaminating currents from native chloride channels in COS-7 cells, KCa2.3 currents were recorded with an internal pipette solution containing (in mM): 145 K^+ aspartate, 2 MgCl2, 10 HEPES, 10 EGTA and 7.4 CaCl2 (500 nM free Ca^2+), pH 7.2, 290-310 mOsm. […] KV2.1, Kv1.3, and KV3.1 currents were recorded in normal Ringer solution with a Ca^2+-free KF-based pipette solution as previously described (Schmitz et al., 2005). HERG (KV11.1) currents were recorded with a 2-step pulse from −80 mV first to 20 mV for 1 sec and then to −50 mV for 1 sec. […]
# mNaV1.2 = molecular target: T2, mNaV1.2 (Mus musculus, UniProt B1AWN6); experiment: NaV1.2 current inhibition (N1E-115 cells); type: cell-based
# T2 construct: NaV1.2 currents from N1E-115 cells; host or cells: N1E-115 mouse neuroblastoma
# T2 sequence (B1AWN6 whole entry): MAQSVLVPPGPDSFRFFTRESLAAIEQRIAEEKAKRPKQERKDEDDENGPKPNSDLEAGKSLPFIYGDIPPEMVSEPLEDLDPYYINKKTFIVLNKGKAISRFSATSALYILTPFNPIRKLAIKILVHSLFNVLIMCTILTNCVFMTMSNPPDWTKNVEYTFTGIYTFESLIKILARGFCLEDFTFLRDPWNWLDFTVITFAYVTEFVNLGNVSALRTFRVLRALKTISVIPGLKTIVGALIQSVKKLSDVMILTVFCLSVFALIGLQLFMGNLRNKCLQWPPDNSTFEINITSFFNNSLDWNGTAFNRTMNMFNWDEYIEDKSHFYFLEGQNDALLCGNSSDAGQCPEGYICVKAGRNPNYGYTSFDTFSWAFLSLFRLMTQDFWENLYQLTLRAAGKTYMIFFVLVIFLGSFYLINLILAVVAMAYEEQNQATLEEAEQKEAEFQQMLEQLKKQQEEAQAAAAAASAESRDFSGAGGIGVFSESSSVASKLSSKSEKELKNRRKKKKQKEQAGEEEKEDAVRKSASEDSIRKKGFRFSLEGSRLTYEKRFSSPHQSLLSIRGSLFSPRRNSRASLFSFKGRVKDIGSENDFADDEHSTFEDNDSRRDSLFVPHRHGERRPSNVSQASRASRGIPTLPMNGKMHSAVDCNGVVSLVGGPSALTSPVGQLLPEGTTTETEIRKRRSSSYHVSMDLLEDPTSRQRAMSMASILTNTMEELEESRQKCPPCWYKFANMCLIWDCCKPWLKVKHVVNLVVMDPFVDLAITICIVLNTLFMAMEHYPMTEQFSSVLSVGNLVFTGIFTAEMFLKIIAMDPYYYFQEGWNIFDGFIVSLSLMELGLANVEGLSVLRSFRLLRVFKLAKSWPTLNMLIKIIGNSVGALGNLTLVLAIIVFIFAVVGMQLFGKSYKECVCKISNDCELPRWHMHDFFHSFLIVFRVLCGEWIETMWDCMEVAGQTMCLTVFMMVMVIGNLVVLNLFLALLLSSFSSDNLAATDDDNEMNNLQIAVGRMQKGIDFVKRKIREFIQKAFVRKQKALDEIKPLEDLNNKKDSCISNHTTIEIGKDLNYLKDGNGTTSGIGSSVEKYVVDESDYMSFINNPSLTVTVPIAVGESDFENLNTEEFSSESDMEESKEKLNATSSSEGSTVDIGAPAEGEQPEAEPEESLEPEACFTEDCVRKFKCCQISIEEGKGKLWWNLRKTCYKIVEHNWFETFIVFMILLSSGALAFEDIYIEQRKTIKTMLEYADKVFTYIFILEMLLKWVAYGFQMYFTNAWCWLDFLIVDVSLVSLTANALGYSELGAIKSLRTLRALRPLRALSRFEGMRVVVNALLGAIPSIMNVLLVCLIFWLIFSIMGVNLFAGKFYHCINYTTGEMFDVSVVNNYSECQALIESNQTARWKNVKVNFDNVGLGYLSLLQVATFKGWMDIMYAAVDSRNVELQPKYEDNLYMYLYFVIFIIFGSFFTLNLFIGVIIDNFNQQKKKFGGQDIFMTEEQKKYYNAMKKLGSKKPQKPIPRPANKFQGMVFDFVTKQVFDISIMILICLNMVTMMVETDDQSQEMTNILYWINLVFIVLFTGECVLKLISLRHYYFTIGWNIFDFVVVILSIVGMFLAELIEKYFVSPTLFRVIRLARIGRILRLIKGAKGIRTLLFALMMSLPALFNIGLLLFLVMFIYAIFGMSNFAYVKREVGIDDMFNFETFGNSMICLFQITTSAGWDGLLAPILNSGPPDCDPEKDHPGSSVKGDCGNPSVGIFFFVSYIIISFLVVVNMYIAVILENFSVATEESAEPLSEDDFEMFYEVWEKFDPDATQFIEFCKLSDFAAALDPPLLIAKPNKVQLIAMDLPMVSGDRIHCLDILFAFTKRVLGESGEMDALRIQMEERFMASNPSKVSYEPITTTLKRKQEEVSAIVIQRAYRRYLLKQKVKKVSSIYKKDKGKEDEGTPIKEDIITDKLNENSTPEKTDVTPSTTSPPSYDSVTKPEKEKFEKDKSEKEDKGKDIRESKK
# rKCa2.2 = rKCa2.2 (UniProt P0DP23+P70604); experiment: Whole-cell patch-clamp KCa2.2 activation (HEK-293)
# Method: (§1) Electrophysiology. Experiments were conducted either manually with an EPC-10 amplifier (HEKA, Lambrecht/Pfalz, Germany) or on a QPatch-16 automated electrophysiology platform (Sophion Biosciences, Denmark). […] Patch pipettes were pulled from soda lime glass (micro-hematocrit tubes, Kimble Chase, Rochester, N.Y.) and had resistances of 2-3 MΩ. […] Free Ca^2+ concentrations were calculated with MaxChelator assuming a temperature of 25° C., a pH of 7.2 and an ionic strength of 160 mM. […] Na^+ aspartate Ringer was used as an external solution (in mM): 160 Na^+ aspartate, 4.5 KCl, 2 CaCl2, 1 MgCl2, 5 HEPES, pH 7.4, 290-310 mOsm. Both KCa2 and KCa3.1 currents were elicited by 200-ms voltage ramps from −120 mV to 40 mV applied every 10 sec and the fold-increase of slope conductance at −80 mV by drug taken as a measure of channel activation.
# (§2) For automated electrophysiology experiments cells were grown to ˜70% confluency, rinsed in sterile PBS containing 0.02% EDTA, and lifted with 2 mL of TrypLE™ Express (Gibco, Grand Island, N.Y.) for ˜2 min. […] Current slopes (in ampere per sec) were measured using the SophionQPatch software and exported to Microsoft Excel and Origin 7.0 (OriginLab Corp. MA) for analysis.
# hKCa2.1 = hKCa2.1 (Homo sapiens, UniProt P0DP23+Q92952); experiment: Whole-cell patch-clamp KCa2.1 activation (HEK-293)
# Method: as §1, §2
Compound,HR ([1]; 60 mg/kg i.p.),MAP ([1]; 60 mg/kg i.p.),inhibition at 25 µM (mKV1.3; at 25 μM) [%],inhibition at 25 µM (mNaV1.2; at 25 μM) [%],EC50 (rKCa2.2) [µM],"Hill coefficient nH, KCa2.2 concentration-response curve (rKCa2.2; FIG. 4 legend)",HR ([1]; 100 mg/kg i.p.),drop in MAP ([1]; 100 mg/kg i.p.) [mm Hg],duration of MAP drop ([1]; 100 mg/kg i.p.) [h],"blood pressure ([1]; 100 mg/kg i.p., FIG. 6B)",inhibition at 50 µM (mKV1.3; at 50 μM) [%],inhibition at 50 µM (mNaV1.2; at 50 μM) [%],EC50 (hKCa2.1) [µM],"Hill coefficient nH, KCa2.1 concentration-response curve (hKCa2.1; FIG. 4 legend)"
"Cc1cc2sc(N)nc2c2ccccc12 [SKA-111, 5-methylnaphtho[1,2-d]thiazol-2-amine]",remained virtually stable; also recorded: only a minor drop,reduced blood pressure; also recorded: only a minor drop,28.5 ± 2.3,19.5 ± 6.9,,,,,,,,,,
"Cc1cc2nc(N)oc2c2ccccc12 [SKA-121, 5-Methylnaphtho[2,1-d]oxazol-2-amine]",,,,,6.8 ± 2.2,1.7,remained virtually stable; also recorded: minor decrease,~25,6,reduced blood pressure,27.5 ± 7.2,15.2 ± 12.7,8.7 ± 1.6,4.1

# Reference: US11173146B2, “Selective activators of the intermediate conductance CA2+activated K+ channel KCa3.1 and their methods of use” (The Regents of the University of California, priority 2014, dated 2021)
